Reference: ChEMBL document CHEMBL1153480, “Study on the potential anti-cancer activity of phosphonium and ammonium-based ionic liquids” (2009)

Experiments:
Type in all cases: functional
[1] = system: UO-31; test: Cytotoxicity against human UO31 cells by SRB assay; settings: read-out: LC50 (the source's name)
[2] = system: SW-620; test: cells; settings: Homo sapiens
Description: Growth inhibition of human SW620 cells assessed as drug level required for 50% reduction in net protein increase by SRB assay relative to control

[3] = system: UACC-62; test: cells; settings: Homo sapiens
Description: Growth inhibition of human UACC62 cells assessed as drug level required for 50% reduction in net protein increase by SRB assay relative to control

[4] = system: A498; test: cells; settings: Homo sapiens
Description: Growth inhibition of human A498 cells assessed as drug level required for 50% reduction in net protein increase by SRB assay relative to control

[5] = system: KM12; test: cells; settings: Homo sapiens
Description: Growth inhibition of human KM12 cells assessed as drug level required for 50% reduction in net protein increase by SRB assay relative to control

[6] = system: SK-MEL-28; test: cells; settings: Homo sapiens
Description: Growth inhibition of human SK-MEL-28 cells assessed as cell growth at 10 uM by SRB assay

[7] = system: HCT-15; test: cells; settings: Homo sapiens
Description: Growth inhibition of human HCT15 cells assessed as drug level required for 50% reduction in net protein increase by SRB assay relative to control

[8] = system: NCI-H226; test: cells; settings: Homo sapiens
Description: Growth inhibition of human NCI-H226 cells assessed as drug level required for 50% reduction in net protein increase by SRB assay relative to control

[9] = system: PC-3; test: cells; settings: Homo sapiens
Description: Growth inhibition of human PC3 cells assessed as drug level required for 50% reduction in net protein increase by SRB assay relative to control

[10] = system: NCI-H522; test: cells; settings: Homo sapiens
Description: Growth inhibition of human NCI-H522 cells assessed as cell growth at 10 uM by SRB assay

[11] = system: OVCAR-3; test: cells; settings: Homo sapiens
Description: Growth inhibition of human OVCAR-3 cells assessed as drug level required for 50% reduction in net protein increase by SRB assay relative to control

[12] = system: MCF7; test: cells; settings: Homo sapiens
Description: Growth inhibition of human MCF7 cells assessed as drug level required for 50% reduction in net protein increase by SRB assay relative to control

[13] = system: SF-295; test: cells; settings: Homo sapiens
Description: Growth inhibition of human SF295 cells assessed as cell growth at 10 uM by SRB assay

[14] = Cytotoxicity against human CAKI cells by SRB assay; settings: read-out: LC50 (the source's name)
[15] = system: OVCAR-8; test: cells; settings: Homo sapiens
Description: Growth inhibition of human OVCAR8 cells assessed as cell growth at 10 uM by SRB assay

[16] = system: UO-31; test: cells; settings: Homo sapiens
Description: Growth inhibition of human UO31 cells assessed as drug level required for 50% reduction in net protein increase by SRB assay relative to control

[17] = system: K562; test: Cytotoxicity against human K562 cells by SRB assay; settings: read-out: LC50 (the source's name)
[18] = system: MOLT-4; test: cells; settings: Homo sapiens
Description: Growth inhibition of human MOLT4 cells assessed as drug level required for 50% reduction in net protein increase by SRB assay relative to control

[19] = system: SK-MEL-28; test: cells; settings: Homo sapiens; remark: listed apart in the source
Description: Growth inhibition of human SK-MEL-28 cells assessed as drug level required for 50% reduction in net protein increase by SRB assay relative to control

[20] = system: HT-29; test: cells; settings: Homo sapiens
Description: Growth inhibition of human HT-29 cells assessed as cell growth at 10 uM by SRB assay

[21] = system: A549; test: Cytotoxicity against human A549 cells by SRB assay; settings: read-out: LC50 (the source's name)
[22] = system: RXF 393; test: cells; settings: Homo sapiens
Description: Growth inhibition of human RFX393 cells assessed as cell growth at 10 uM by SRB assay

[23] = cells; settings: Homo sapiens, Hs-578T
Description: Growth inhibition of human Hs 578T cells assessed as drug level required for 50% reduction in net protein increase by SRB assay relative to control

[24] = cells; settings: Homo sapiens, CAKI
Description: Growth inhibition of human CAKI cells assessed as cell growth at 10 uM by SRB assay

[25] = system: HT-29; test: Cytotoxicity against human HT-29 cells by SRB assay; settings: read-out: LC50 (the source's name)
[26] = system: SR; test: cells; settings: Homo sapiens
Description: Growth inhibition of human SR cells assessed as cell growth at 10 uM by SRB assay

[27] = system: SNB-19; test: Cytotoxicity against human SNB19 cells by SRB assay; settings: read-out: LC50 (the source's name)
[28] = system: SK-MEL-2; test: cells; settings: Homo sapiens
Description: Growth inhibition of human SK-MEL-2 cells assessed as drug level required for 50% reduction in net protein increase by SRB assay relative to control

[29] = system: SNB-75; test: Cytotoxicity against human SNB75 cells by SRB assay; settings: read-out: LC50 (the source's name)
[30] = system: SF-268; test: cells; settings: Homo sapiens
Description: Growth inhibition of human SF268 cells assessed as cell growth at 10 uM by SRB assay

[31] = system: SW-620; test: cells; settings: Homo sapiens; remark: listed apart in the source
Description: Growth inhibition of human SW620 cells assessed as cell growth at 10 uM by SRB assay

[32] = system: ACHN; test: cells; settings: Homo sapiens
Description: Growth inhibition of human ACHN cells assessed as cell growth at 10 uM by SRB assay

[33] = system: OVCAR-5; test: cells; settings: Homo sapiens
Description: Growth inhibition of human OVCAR5 cells assessed as cell growth at 10 uM by SRB assay

[34] = system: T47D; test: cells; settings: Homo sapiens
Description: Growth inhibition of human T47D cells assessed as cell growth at 10 uM by SRB assay

[35] = system: NCI-H322M; test: cells; settings: Homo sapiens
Description: Growth inhibition of human NCI-H322M cells assessed as cell growth at 10 uM by SRB assay

[36] = system: U-251; test: cells; settings: Homo sapiens
Description: Growth inhibition of human U251 cells assessed as cell growth at 10 uM by SRB assay

[37] = system: M14; test: cells; settings: Homo sapiens
Description: Growth inhibition of human M14 cells assessed as drug level required for 50% reduction in net protein increase by SRB assay relative to control

[38] = system: SK-MEL-5; test: cells; settings: Homo sapiens
Description: Growth inhibition of human SK-MEL-5 cells assessed as drug level required for 50% reduction in net protein increase by SRB assay relative to control

[39] = system: SNB-19; test: cells; settings: Homo sapiens
Description: Growth inhibition of human SNB19 cells assessed as cell growth at 10 uM by SRB assay

[40] = system: MDA-MB-231; test: cells; settings: Homo sapiens
Description: Growth inhibition of human MDA-MB-231 cells assessed as drug level required for 50% reduction in net protein increase by SRB assay relative to control

[41] = system: SN12C; test: cells; settings: Homo sapiens
Description: Growth inhibition of human SN12C cells assessed as cell growth at 10 uM by SRB assay

[42] = system: NCI-H322M; test: cells; settings: Homo sapiens; remark: listed apart in the source
Description: Growth inhibition of human NCI-H322M cells assessed as drug level required for 50% reduction in net protein increase by SRB assay relative to control

[43] = system: K562; test: cells; settings: Homo sapiens
Description: Growth inhibition of human K562 cells assessed as drug level required for 50% reduction in net protein increase by SRB assay relative to control

[44] = system: HOP-62; test: cells; settings: Homo sapiens
Description: Growth inhibition of human HOP62 cells assessed as cell growth at 10 uM by SRB assay

[45] = system: HCT-116; test: cells; settings: Homo sapiens
Description: Growth inhibition of human HCT116 cells assessed as drug level required for 50% reduction in net protein increase by SRB assay relative to control

[46] = system: HL-60(TB); test: cells; settings: Homo sapiens
Description: Growth inhibition of human HL-60(TB) cells assessed as cell growth at 10 uM by SRB assay

[47] = system: NCI-H460; test: cells; settings: Homo sapiens
Description: Growth inhibition of human NCI-H460 cells assessed as drug level required for 50% reduction in net protein increase by SRB assay relative to control

[48] = system: NCI-H23; test: Cytotoxicity against human NCI-H23 cells by SRB assay; settings: read-out: LC50 (the source's name)
[49] = system: NCI-H226; test: cells; settings: Homo sapiens; remark: listed apart in the source
Description: Growth inhibition of human NCI-H226 cells assessed as cell growth at 10 uM by SRB assay

[50] = system: NCI-H460; test: Cytotoxicity against human NCI-H460 cells by SRB assay; settings: read-out: LC50 (the source's name)
[51] = system: NCI-H23; test: cells; settings: Homo sapiens
Description: Growth inhibition of human NCI-H23 cells assessed as drug level required for 50% reduction in net protein increase by SRB assay relative to control

[52] = system: COLO 205; test: Cytotoxicity against human COLO205 cells by SRB assay; settings: read-out: LC50 (the source's name)
[53] = system: TK-10; test: cells; settings: Homo sapiens
Description: Growth inhibition of human TK10 cells assessed as drug level required for 50% reduction in net protein increase by SRB assay relative to control

[54] = system: T47D; test: cells; settings: Homo sapiens; remark: listed apart in the source
Description: Growth inhibition of human T47D cells assessed as drug level required for 50% reduction in net protein increase by SRB assay relative to control

[55] = system: SNB-75; test: cells; settings: Homo sapiens
Description: Growth inhibition of human SNB75 cells assessed as cell growth at 10 uM by SRB assay

[56] = system: DU-145; test: cells; settings: Homo sapiens
Description: Growth inhibition of human DU145 cells assessed as cell growth at 10 uM by SRB assay

[57] = system: MDA-MB-435; test: cells; settings: Homo sapiens
Description: Growth inhibition of human MDA-MB-435 cells assessed as cell growth at 10 uM by SRB assay

[58] = system: HOP-62; test: Cytotoxicity against human HOP62 cells by SRB assay; settings: read-out: LC50 (the source's name)
[59] = system: LOX IMVI; test: cells; settings: Homo sapiens
Description: Growth inhibition of human LOXIMVI cells assessed as cell growth at 10 uM by SRB assay

[60] = system: NCI/ADR-RES; test: cells; settings: Homo sapiens
Description: Growth inhibition of human NCI/ADR-RES cells assessed as cell growth at 10 uM by SRB assay

[61] = system: SK-MEL-28; test: Cytotoxicity against human SK-MEL-28 cells by SRB assay; settings: read-out: LC50 (the source's name)
[62] = cells; settings: Homo sapiens, CAKI; remark: listed apart in the source
Description: Growth inhibition of human CAKI cells assessed as drug level required for 50% reduction in net protein increase by SRB assay relative to control

[63] = system: OVCAR-4; test: cells; settings: Homo sapiens
Description: Growth inhibition of human OVCAR4 cells assessed as cell growth at 10 uM by SRB assay

[64] = system: HT-29; test: cells; settings: Homo sapiens; remark: listed apart in the source
Description: Growth inhibition of human HT-29 cells assessed as drug level required for 50% reduction in net protein increase by SRB assay relative to control

[65] = system: UO-31; test: cells; settings: Homo sapiens; remark: listed apart in the source
Description: Growth inhibition of human UO31 cells assessed as cell growth at 10 uM by SRB assay

[66] = system: HL-60(TB); test: cells; settings: Homo sapiens; remark: listed apart in the source
Description: Growth inhibition of human HL-60(TB) cells assessed as drug level required for 50% reduction in net protein increase by SRB assay relative to control

[67] = system: HOP-92; test: cells; settings: Homo sapiens
Description: Growth inhibition of human HOP92 cells assessed as cell growth at 10 uM by SRB assay

[68] = system: SK-MEL-2; test: Cytotoxicity against human SK-MEL-2 cells by SRB assay; settings: read-out: LC50 (the source's name)
[69] = system: MDA-MB-435; test: Cytotoxicity against human MDA-MB-435 cells by SRB assay; settings: read-out: LC50 (the source's name)
[70] = system: HCT-116; test: Cytotoxicity against human HCT116 cells by SRB assay; settings: read-out: LC50 (the source's name)
[71] = system: RXF 393; test: cells; settings: Homo sapiens; remark: listed apart in the source
Description: Growth inhibition of human RFX393 cells assessed as drug level required for 50% reduction in net protein increase by SRB assay relative to control

[72] = system: HCT-15; test: cells; settings: Homo sapiens; remark: listed apart in the source
Description: Growth inhibition of human HCT15 cells assessed as cell growth at 10 uM by SRB assay

CCCCCCCCCCCCCCCCCCPCCCCCCCCCCCCCC.O=S(=O)(NS(=O)(=O)C(F)(F)F)C(F)(F)F (configuration not stated)
CC50 [1]: > 100000 nM | GI50 [2]: 49 nM | GI50 [3]: 45 nM | GI50 [4]: 310 nM | GI50 [5]: 49 nM | growth at 10 µM [6]: -97.8% | GI50 [7]: 291 nM | GI50 [8]: 105 nM | GI50 [9]: 45 nM | growth at 10 µM [10]: -71.4% | GI50 [11]: 51 nM | GI50 [12]: 144 nM | growth at 10 µM [13]: -68.4% | CC50 [14]: > 100000 nM | growth at 10 µM [15]: -79.9% | GI50 [16]: 350 nM | CC50 [17]: > 100000 nM | GI50 [18]: 69 nM | GI50 [19]: 207 nM | growth at 10 µM [20]: -58.2% | CC50 [21]: > 100000 nM | growth at 10 µM [22]: -97.7% | GI50 [23]: 53 nM | growth at 10 µM [24]: 4.01% | CC50 [25]: > 100000 nM | growth at 10 µM [26]: 62.4% | CC50 [27]: > 100000 nM | GI50 [28]: 27 nM | CC50 [29]: > 100000 nM | growth at 10 µM [30]: -4.6% | growth at 10 µM [31]: -86.3% | growth at 10 µM [32]: -26% | growth at 10 µM [33]: -7.29% | growth at 10 µM [34]: -14.8% | growth at 10 µM [35]: -11.9% | growth at 10 µM [36]: -68.4% | GI50 [37]: 52 nM | GI50 [38]: 79 nM | growth at 10 µM [39]: 8.99% | GI50 [40]: 56 nM | growth at 10 µM [41]: -79.1% | GI50 [42]: 321 nM | GI50 [43]: 41 nM | growth at 10 µM [44]: -2.18% | GI50 [45]: 61 nM | growth at 10 µM [46]: 43.1% | GI50 [47]: 315 nM | CC50 [48]: > 100000 nM | growth at 10 µM [49]: -1.45% | CC50 [50]: > 100000 nM | GI50 [51]: 192 nM | CC50 [52]: > 100000 nM | GI50 [53]: 341 nM | GI50 [54]: 73 nM | growth at 10 µM [55]: -31.4% | growth at 10 µM [56]: -100% | growth at 10 µM [57]: -81% | CC50 [58]: > 100000 nM | growth at 10 µM [59]: -68.5% | growth at 10 µM [60]: -10.5% | CC50 [61]: 6590 nM | GI50 [62]: 236 nM | growth at 10 µM [63]: -91.8% | GI50 [64]: 53 nM | growth at 10 µM [65]: -36.6% | GI50 [66]: 46 nM | growth at 10 µM [67]: -67.1% | CC50 [68]: > 100000 nM | CC50 [69]: 19800 nM | CC50 [70]: > 100000 nM | GI50 [71]: 141 nM | growth at 10 µM [72]: 7.54%
